Assay results published in patent US10385048B2, “Pesticidally active polycyclic derivatives with sulfur containing substituents” (Syngenta Participations AG, priority 2014, dated 2019).

Columns and labels:
Type in all cases: in vivo
Anopheles stephensi = Anopheles stephensi (Indian malaria mosquito), dry deposit in 12 well plates, adult females; conditions: application rate 200 ppm in ethanol, after 48 h and/or 24 h
Procedure: Example B13: Anopheles stephensi (Indian Malaria Mosquito)
Test solutions, at an application rate of 200 ppm in ethanol, were applied to 12 well tissue culture plates. Once the deposits were dry, five, two to five day old adult female Anopheles stephensi were added to each well, and sustained with a 10% sucrose solution in a cotton wool plug. Assessment of knockdown was made one hour after introduction, and mortality was assessed at 24 and 48 hours after introduction.

Plutella xylostella = Plutella xylostella (diamond back moth), artificial diet, L2 larvae; conditions: 120 h, application rate 200 ppm, 5 days after infestation, read-out: effect in at least one of the two categories (mortality or growth inhibition)
Procedure: Example B7: Plutella xylostella (Diamond Back Moth)
24-well microtiter plates with artificial diet were treated with aqueous test solutions prepared from 10′000 ppm DMSO stock solutions by pipetting. After drying, the plates were infested with L2 larvae (10 to 15 per well). The samples were assessed for mortality and growth inhibition in comparison to untreated samples 5 days after infestation.

Aedes aegypti = Aedes aegypti (yellow fever mosquito), dry deposit in 12 well plates, adult females; conditions: application rate 200 ppm in ethanol, after 48 h and/or 24 h
Procedure: Example B12: Aedes aegypti (Yellow Fever Mosquito)
Test solutions, at an application rate of 200 ppm in ethanol, were applied to 12 well tissue culture plates. Once the deposits were dry, five, two to five day old adult female Aedes aegypti were added to each well, and sustained with a 10% sucrose solution in a cotton wool plug. Assessment of knockdown was made one hour after introduction, and mortality was assessed at 24 and 48 hours after introduction.

Spodoptera littoralis [1] = experiment: Spodoptera littoralis (Egyptian cotton leaf worm), cotton leaf discs, L1 larvae; conditions: foliar, 72 h, application rate 200 ppm, L1 larvae on cotton leaf discs, 3 days after infestation
Procedure: Example B8: Spodoptera littoralis (Egyptian Cotton Leaf Worm)
Cotton leaf discs were placed onto agar in 24-well microtiter plates and sprayed with aqueous test solutions prepared from 10′000 ppm DMSO stock solutions. After drying the leaf discs were infested with five L1 larvae. The samples were assessed for mortality, anti-feeding effect, and growth inhibition in comparison to untreated samples 3 days after infestation. Control of Spodoptera littoralis by a test sample is given when at least one of the categories mortality, anti-feedant effect, and growth inhibition is higher than the untreated sample.

Diabrotica Balteata = experiment: Diabrotica balteata (corn root worm), maize sprouts, L2 larvae; conditions: 96 h, application rate 200 ppm, 4 days after infestation, read-out: effect in at least one of the two categories (mortality or growth inhibition)
Procedure: Example B2: Diabrotica Balteata (Corn Root Worm)
Maize sprouts placed onto an agar layer in 24-well microtiter plates were treated with aqueous test solutions prepared from 10′000 ppm DMSO stock solutions by spraying. After drying, the plates were infested with L2 larvae (6 to 10 per well). The samples were assessed for mortality and growth inhibition in comparison to untreated samples 4 days after infestation.

Myzus persicae [2] = experiment: Myzus persicae (green peach aphid) feeding/contact activity, sunflower leaf discs; conditions: foliar, 144 h, application rate 200 ppm, 6 days after infestation
Procedure: Example B5: Myzus persicae (Green Peach Aphid): Feeding/Contact Activity
Sunflower leaf discs were placed onto agar in a 24-well microtiter plate and sprayed with aqueous test solutions prepared from 10′000 ppm DMSO stock solutions. After drying, the leaf discs were infested with an aphid population of mixed ages. The samples were assessed for mortality 6 days after infestation.

Thrips tabaci = Thrips tabaci (onion thrips) feeding/contact activity, sunflower leaf discs; conditions: foliar, 144 h, application rate 200 ppm, population of mixed ages, 6 days after infestation
Procedure: Example B11: Thrips tabaci (Onion Thrips) Feeding/Contact Activity
Sunflower leaf discs were placed on agar in 24-well microtiter plates and sprayed with aqueous test solutions prepared from 10′000 ppm DMSO stock solutions. After drying the leaf discs were infested with a thrips population of mixed ages. The samples were assessed for mortality 6 days after infestation.

Euschistus heros = Euschistus heros (neotropical brown stink bug), soybean leaves, N2 nymphs; conditions: 120 h, application rate 200 ppm, 5 days after infestation, read-out: effect in at least one of the two categories (mortality or growth inhibition)
Procedure: Example B3: Euschistus heros (Neotropical Brown Stink Bug)
Soybean leaves on agar in 24-well microtiter plates were sprayed with aqueous test solutions prepared from 10′000 ppm DMSO stock solutions. After drying the leaves were infested with N2 nymphs. The samples were assessed for mortality and growth inhibition in comparison to untreated samples 5 days after infestation.

Bemisia tabaci = Bemisia tabaci (cotton white fly) feeding/contact activity, cotton leaf discs; conditions: foliar, 144 h, application rate 200 ppm, adult white flies, 6 days after incubation
Procedure: Example B1: Bemisia tabaci (Cotton White Fly): Feeding/Contact Activity
Cotton leaf discs were placed on agar in 24-well microtiter plates and sprayed with aqueous test solutions prepared from 10′000 ppm DMSO stock solutions. After drying the leaf discs were infested with adult white flies. The samples were checked for mortality 6 days after incubation.

Spodoptera littoralis [3] = experiment: Spodoptera littoralis (Egyptian cotton leaf worm), uptake by lettuce roots from agar, eggs; conditions: 144 h, test rate 12.5 ppm, lettuce root uptake, 6 days after infestation, read-out: effect in at least one of the three categories (mortality, anti-feeding, or growth inhibition)
Text: Example B9: Spodoptera littoralis (Egyptian Cotton Leaf Worm)
Test compounds were applied by pipette from 10′000 ppm DMSO stock solutions into 24-well plates and mixed with agar. Lettuce seeds were placed onto the agar and the multi well plate was closed by another plate which contained also agar. After 7 days the compound was absorbed by the roots and the lettuce grew into the lid plate. The lettuce leaves were then cut off into the lid plate. Spodoptera eggs were pipetted through a plastic stencil onto a humid gel blotting paper and the lid plate was closed with it. The samples were assessed for mortality, anti-feedant effect and growth inhibition in comparison to untreated samples 6 days after infestation.

Myzus persicae [4] = experiment: Myzus persicae (green peach aphid) systemic activity, pea seedling roots; conditions: 144 h, test rate 24 ppm, 6 days after placing seedlings into test solutions

CCS(=O)(=O)c1cc(Br)cnc1-c1nc2cc(SC(F)(F)F)ncc2n1C [Compound P16]
≥ 80%: pest or weed control at 200 ppm (Anopheles stephensi) | percent effect (mortality or growth inhibition) at 200 ppm (Plutella xylostella) | pest or weed control at 200 ppm (Aedes aegypti) | percent control (mortality, anti-feedant effect or growth inhibition) at 200 ppm (Spodoptera littoralis [1]) | percent effect (mortality or growth inhibition) at 200 ppm (Diabrotica Balteata) | mortality at 200 ppm (Myzus persicae [2]) | mortality at 200 ppm (Thrips tabaci) | percent effect (mortality or growth inhibition) at 200 ppm (Euschistus heros) | mortality at 200 ppm (Bemisia tabaci) | percent effect (mortality, anti-feeding or growth inhibition) at 12.5 ppm (Spodoptera littoralis [3])

CCS(=O)(=O)c1cc(C(F)(F)F)cnc1-c1nc2cc(SCC(F)(F)F)ncc2n1C [Compound P17, 2-[3-Ethylsulfonyl-5-(trifluoromethyl)-2-pyridyl]-3-methyl-6-(2,2,2-trifluoroethylsulfanyl) imidazo[4,5-c]pyridine]
≥ 80%: percent effect (mortality or growth inhibition) at 200 ppm (Diabrotica Balteata) | mortality at 200 ppm (Myzus persicae [2])

CCS(=O)(=O)c1cc(C(F)(F)F)cnc1-c1nc2cc(OCC(F)(F)F)ncc2n1C [Compound P14]
≥ 80%: mortality at 200 ppm (Myzus persicae [2]) | percent effect (mortality or growth inhibition) at 200 ppm (Euschistus heros) | mortality at 24 ppm (Myzus persicae [4])

CCS(=O)(=O)c1cc(C(F)(F)F)cnc1-c1nc2cc(OC(F)F)ncc2n1C [Compound P6, 6-(difluoromethoxy)-2-[3-ethylsulfonyl-5-(trifluoromethyl)-2-pyridyl]-3-methyl-imidazo[4,5-c]pyridine]
≥ 80%: percent effect (mortality or growth inhibition) at 200 ppm (Plutella xylostella) | percent control (mortality, anti-feedant effect or growth inhibition) at 200 ppm (Spodoptera littoralis [1]) | percent effect (mortality or growth inhibition) at 200 ppm (Diabrotica Balteata) | mortality at 200 ppm (Myzus persicae [2]) | mortality at 200 ppm (Thrips tabaci) | mortality at 200 ppm (Bemisia tabaci)

CCSc1cc(C(F)(F)F)cnc1-c1nc2cc(SC(F)(F)F)ncc2n1C [Compound P11, 2-[3-Ethylsulfanyl-5-(trifluoromethyl)-2-pyridyl]-3-methyl-6-(trifluoromethylsulfanyl)imidazo[4,5-c]pyridine]
≥ 80%: pest or weed control at 200 ppm (Anopheles stephensi) | percent effect (mortality or growth inhibition) at 200 ppm (Plutella xylostella) | pest or weed control at 200 ppm (Aedes aegypti) | percent control (mortality, anti-feedant effect or growth inhibition) at 200 ppm (Spodoptera littoralis [1]) | percent effect (mortality or growth inhibition) at 200 ppm (Diabrotica Balteata) | mortality at 200 ppm (Myzus persicae [2]) | percent effect (mortality or growth inhibition) at 200 ppm (Euschistus heros)

CCS(=O)(=O)c1cc(C(F)(F)F)cnc1-c1nc2cc(OC)ncc2n1C [Compound P2]
≥ 80%: mortality at 24 ppm (Myzus persicae [4])

CCSc1cc(C(F)(F)F)cnc1-c1nc2cc(OC(F)F)ncc2n1C [Compound P13, 6-(difluoromethoxy)-2-[3-ethylsulfanyl-5-(trifluoromethyl)-2-pyridyl]-3-methyl-imidazo[4,5-c]pyridine]
≥ 80%: pest or weed control at 200 ppm (Anopheles stephensi) | percent effect (mortality or growth inhibition) at 200 ppm (Plutella xylostella) | pest or weed control at 200 ppm (Aedes aegypti) | percent effect (mortality or growth inhibition) at 200 ppm (Diabrotica Balteata) | mortality at 200 ppm (Myzus persicae [2]) | percent effect (mortality or growth inhibition) at 200 ppm (Euschistus heros) | mortality at 200 ppm (Bemisia tabaci)

CCSc1cc2nc(-c3ncc(C(F)(F)F)cc3SCC)n(C)c2cn1 [Compound P1]
≥ 80%: percent effect (mortality or growth inhibition) at 200 ppm (Plutella xylostella) | percent effect (mortality or growth inhibition) at 200 ppm (Diabrotica Balteata) | percent effect (mortality or growth inhibition) at 200 ppm (Euschistus heros)

CCS(=O)(=O)c1cc(C(F)(F)F)cnc1-c1nc2cc([S+]([O-])CC(F)(F)F)ncc2n1C (stereo not drawn) [Compound P15, 2-[3-Ethylsulfonyl-5-(trifluoromethyl)-2-pyridyl]-3-methyl-6-(2,2,2-trifluoroethylsulfinyl)imidazo[4,5-c]pyridine]
≥ 80%: pest or weed control at 200 ppm (Anopheles stephensi) | percent effect (mortality or growth inhibition) at 200 ppm (Plutella xylostella) | pest or weed control at 200 ppm (Aedes aegypti) | percent control (mortality, anti-feedant effect or growth inhibition) at 200 ppm (Spodoptera littoralis [1]) | percent effect (mortality or growth inhibition) at 200 ppm (Diabrotica Balteata) | mortality at 200 ppm (Myzus persicae [2]) | mortality at 200 ppm (Thrips tabaci) | percent effect (mortality or growth inhibition) at 200 ppm (Euschistus heros) | mortality at 200 ppm (Bemisia tabaci) | percent effect (mortality, anti-feeding or growth inhibition) at 12.5 ppm (Spodoptera littoralis [3]) | mortality at 24 ppm (Myzus persicae [4])

CCS(=O)(=O)c1cc(C(F)(F)F)cnc1-c1nc2cc(OCC(F)F)ncc2n1C [Compound P3]
≥ 80%: percent effect (mortality or growth inhibition) at 200 ppm (Plutella xylostella) | percent control (mortality, anti-feedant effect or growth inhibition) at 200 ppm (Spodoptera littoralis [1]) | percent effect (mortality or growth inhibition) at 200 ppm (Diabrotica Balteata) | mortality at 200 ppm (Myzus persicae [2]) | percent effect (mortality or growth inhibition) at 200 ppm (Euschistus heros) | percent effect (mortality, anti-feeding or growth inhibition) at 12.5 ppm (Spodoptera littoralis [3])

CCS(=O)(=O)c1cc(C(F)(F)F)cnc1-c1nc2cc(OC(F)(F)Br)ncc2n1C [Compound P5, 6-[bromo(difluoro)methoxy]-2-[3-ethylsulfonyl-5-(trifluoromethyl)-2-pyridyl]-3-methyl-imidazo[4,5-c]pyridine]
≥ 80%: pest or weed control at 200 ppm (Anopheles stephensi) | pest or weed control at 200 ppm (Aedes aegypti) | percent control (mortality, anti-feedant effect or growth inhibition) at 200 ppm (Spodoptera littoralis [1]) | percent effect (mortality or growth inhibition) at 200 ppm (Diabrotica Balteata) | mortality at 200 ppm (Myzus persicae [2]) | mortality at 200 ppm (Thrips tabaci) | percent effect (mortality or growth inhibition) at 200 ppm (Euschistus heros) | mortality at 200 ppm (Bemisia tabaci) | percent effect (mortality, anti-feeding or growth inhibition) at 12.5 ppm (Spodoptera littoralis [3])

CCSc1cc(C(F)(F)F)cnc1-c1nc2cc(OC(F)F)ncc2n1C [Compound P7]
≥ 80%: percent control (mortality, anti-feedant effect or growth inhibition) at 200 ppm (Spodoptera littoralis [1])
